Data from article PMC5554889, “Development of a Potent Inhibitor of the Plasmodium Proteasome with Reduced Mammalian Toxicity” (Journal of Medicinal Chemistry, 2017).

Columns and labels:
HepG2 cells = assay: HepG2 cytotoxicity assay; format: cell-based, human; settings: D-amino acid at P3; comparator not given
Dd2 parasites = assay: Artemisinin IC50 with proteasome inhibitor co-treatment, 72 h SYBR green assay; format: cell-based; settings: Plasmodium falciparum
Procedure: Compound susceptibility was measured using the malaria SYBR green I-based fluorescence assay.[39] Asynchronous P. falciparum parasites (Dd2 strain) were cultured in standard conditions before being plated for the assays. Each compound was tested over 72 h in technical duplicates on a 12-point concentration curve prepared by 3-fold dilution from 6.7 μM to 0.11 nM. At least three independent experiments were carried out for IC50 determination. Artemisinin and chloroquine were used as controls. IC50 values were obtained using normalized fluorescence intensity from SYBR green I and analyzed via nonlinear variable slope four-parameter regression curve-fitting model in Prism 6 (GraphPad Software Inc.).

[1] = test system: ABC16-Monster S. cerevisiae; assay: microbe, parasite or virus in culture; format: cell-based; settings: Saccharomyces cerevisiae

`CCCCCC(=O)N[C@H](Cc1c[nH]c2ccccc12)C(=O)N[C@@H](CCCC)C(=O)N[C@@H](CC(C)C)C(=O)[C@@]1(C)CO1` [analog 19] was tested, and the fold reduced toxicity (HepG2 cells) was “up to 100 fold”.
In the case of `C[C@@H]1CC[C@H]2[C@@H](C)C(=O)O[C@@H]3O[C@@]4(C)CC[C@@H]1[C@]32OO4` [artemisinin], the IC50 (Dd2 parasites; DD2, Art + 0.5 nM Analog 18, n = 2) is reported as 11 nM, the IC50 (Dd2 parasites; DD2, Art + 0.5 nM CarB, n = 2) is reported as 13.5 nM and the IC50 (Dd2 parasites; DD2, Art + 1.0 nM Analog 18, n = 2) is reported as 7.5 nM. The IC50 (Dd2 parasites; DD2, Art + 1.0 nM CarB, n = 2) was 7 nM, the IC50 (Dd2 parasites; DD2, Art only, Figure 3B, mean ± SEM, n = 2) was 23.5 nM and the IC50 (Dd2 parasites; DD2, Art only, Figure 3C, mean ± SEM, n = 2) was 19 nM. It also gave an IC50 (Dd2 parasites; DD2, artemisinin alone, wild-type artemisinin-sensitive Dd2 parasites, span of both experiments) of 19 to 23.5 nM.
Work on `CCCCCC(=O)N[C@H](C(=O)N[C@@H](CCS(C)(=O)=O)C(=O)N[C@@H](CC(C)C)C(=O)[C@@]1(C)CO1)C(C)C` [Carmaphycin B, carmaphycin B] yielded an IC50 ([1]; GM (parental ABC16-Monster strain), n=4) of 24.3 µM, an IC50 ([1]; resistant Lineage 1) of over 150 µM and an IC50 ([1]; resistant Lineage 2, n=4) of 52.7 µM. For the same compound, the IC50 ([1]; resistant Lineage 3) was over 100 µM.
